Each structure is given as a SMILES string.

One assay has as its system HEK293. The assay can be described thus: Cytotoxicity against HEK293 cells assessed as cell growth incubated for 48 hrs by MTT assay. The assay is classed as cell-based. The conditions noted are these: Homo sapiens, HEK293, 48 h. (In general: Formazan colour is commonly taken as a measure of viable cells.)
In the case of `CNC(=O)CCCCCc1c(C)cc(C)c2[n+]1CC(C)C=C2` (stereo not drawn), the 50% inhibitory concentration (IC50) (in general, the midpoint of a concentration-inhibition curve) is > 30000 nM.

Consider `CCCC/C=C(\C)c1c(C)cc(C)c2[n+]1CC(C)C=C2` (stereo not drawn), for which the 50% inhibitory concentration (IC50) was 1700 nM.

A further assay deals with HeLa S3. Description: Cytotoxicity against human HeLaS3 cells assessed as cell growth incubated for 48 hrs by MTT assay. The settings on record: HeLa S3, 48 h. Format: functional, cell-based.
Take `CCCC/C=C/c1c(C)cc(C)c2[n+]1CC(C)CC2` (stereo not drawn): the 50% inhibitory concentration (IC50) was found to be 580 nM.

Consider `CCCC/C=C/c1c(C)cc(C)c2[n+]1CC(C)C=C2` (stereo not drawn), for which the 50% inhibitory concentration (IC50) was 370 nM.

For the compound `CCCCCCc1c(C)cc(C)c2[n+]1CC(C)C=C2` (stereo not drawn), the IC50 stood at 470 nM.

With `CCCCCCCCCCCC/C=C/c1c(C)cc(C)c2[n+]1CC(C)C=C2` (stereo not drawn), the half-inhibitory concentration (IC50) was 38 nM.

For `CCCC/C=C(\C)c1c(C)cc(C)c2[n+]1CCC=C2`, the half-inhibitory concentration (IC50) is 680 nM.

Take `CNC(=O)CCCCCc1c(C)cc(C)c2[n+]1CC(C)C=C2` (stereo not drawn): the concentration for half-maximal inhibition (IC50) is > 30000 nM.

Take `CCCC/C=C(\C)c1nc(/C=C\C(C)C)c(C)cc1C`: the concentration for half-maximal inhibition (IC50) is > 30000 nM.

For `CC/C=C/c1c(C)cc(C)c2[n+]1CC(C)C=C2` (stereo not drawn), the concentration for half-maximal inhibition (IC50) was determined as 2000 nM.

As for `CCCCCCCC/C=C/c1c(C)cc(C)c2[n+]1CC(C)C=C2` (stereo not drawn), the IC50 is 51 nM.

Take `CCCCCCCCCCCCCC/C=C/c1c(C)cc(C)c2[n+]1CC(C)C=C2` (stereo not drawn): the half-maximal inhibitory concentration (IC50) amounted to 58 nM.

For `CCCCCCCCCC/C=C/c1c(C)cc(C)c2[n+]1CC(C)C=C2` (stereo not drawn), the IC50 was 52 nM.

Take `CCCC/C=C(\C)c1c(C)cc(C)c[n+]1CCCC`: the IC50 turned out to be 720 nM.

For the compound `CCCC/C=C(\C)c1c(C)cc(C)c2[n+]1CC(C)C=C2` (stereo not drawn), the IC50 was found to be 640 nM.

Regarding `CCCC/C=C(\C)c1c(C)cc(C)c2[n+]1CC(C)CC2` (stereo not drawn), the IC50 stood at 360 nM.

For `CCCCCC/C=C/c1c(C)cc(C)c2[n+]1CC(C)C=C2` (stereo not drawn), the half-inhibitory concentration (IC50) turned out to be 170 nM.

The next assay deals with HeLa S3. The assay can be described thus: Cytotoxicity against human HeLaS3 cells assessed as reduction in cell viability. Format: functional, cell-based.
Details: not given
`C1=Cc2cccc[n+]2CC1`: the half-inhibitory concentration (IC50) was > 30000 nM.

(Values after ChEMBL document CHEMBL4627253, “Relationship among structure, cytotoxicity, and Michael acceptor reactivity of quinocidin” (Bioorg Med Chem, 2020).)
